From patent US12516039B2, “N-linked isoquinoline amides as LRRK2 inhibitors, pharmaceutical compositions, and uses thereof” (Merck Sharp & Dohme LLC, priority 2020, dated 2026) come the findings set out here.

For the assay, the target named is T1, GST-tagged truncated human mutant G2019S LRRK2 (Homo sapiens, UniProt Q5S007, G2019S).
T1 construct: GST-tagged truncated human mutant G2019S LRRK2; purchased Life Technologies Corporation (Carlsbad, CA)
The assay can be described thus: LRRK2 G2019S Km ATP LanthaScreen assay. Type of assay: biochemical. The conditions noted are these: 134 μM ATP (Km ATP), LRRKtide substrate, mean of several tests; for IC50: read-out: LRRK2 pIC50 (converted). On the procedure:
Unless otherwise noted, all reactions are magnetically stirred. Unless otherwise noted, when diethyl ether is used in the experiments described below, it is Fisher ACS certified material and is stabilized with BHT. Unless otherwise noted, “concentrated” and/or “solvent removed under reduced pressure” means evaporating the solvent from a solution or mixture using a rotary evaporator or vacuum pump. Unless otherwise noted, flash chromatography is carried out on a Teledyne Isco (Lincoln, NE), Analogix (Burlington, WI), or Biotage (Stockholm, SWE) automated chromatography system using a commercially available cartridge as the column. Columns may be purchased from Teledyne Isco, Analogix, Biotage, Varian (Palo Alto, CA), or Supelco (Bellefonte, PA) and are usually filled with silica gel as the stationary phase. Reverse phase prep-HPLC conditions, where used, can be found at the end of each experimental section. Aqueous solutions were concentrated on a Genevac (Ipswich, ENG) or by freeze-drying/lyophilization. Unless otherwise noted, all LRRK2 pIC50 data presented in tables refers to the LRRK2 G2019S Km ATP LanthaScreen™ assay (Life Technologies Corp., Carlsbad, CA) that is described in the Biological Assay section.
Biological Assay: LRRK2 Km ATP LanthaScreen™ Assay
The LRRK2 kinase activity reported herein as IC50 values was determined with LanthaScreen™ technology from Life Technologies Corporation (Carlsbad, CA) using GST-tagged truncated human mutant G2019S LRRK2 in the presence of the fluorescein-labeled peptide substrate LRRKtide, also from Life Technologies. The data presented for the Km ATP LanthaScreen™ Assay represents mean IC50 values based on several test results and may have reasonable deviations depending on the specific conditions and reagents used. Assays were performed in the presence of 134 μM ATP (Km ATP). Upon completion, the assay was stopped and phosphorylated substrate detected with a terbium (Tb)-labeled anti-pERM antibody (cat. no. PV4898). The compound dose response was prepared by diluting a 10 mM stock of compound to a maximum concentration of 9.99 μM in 100% dimethylsulfoxide followed by custom fold serial dilution in dimethylsulfoxide nine times. Twenty nanoliters of each dilution was spotted via a Labcyte Echo onto a 384-well black-sided plate (Corning 3575) followed by 15 μl of a 1.25 nM enzyme solution in 1× assay buffer (50 mM Tris pH 8.5, 10 mM MgCl2, 0.01% Brij-35, 1 mM EGTA, 2 mM dithiothreitol, 0.05 mM sodium orthovanadate). Following a 15-minute incubation at room temperature, the kinase reaction was started with the addition of 5 μl of 400 nM fluorescein-labeled LRRKtide peptide substrate and 134 μM ATP solution in 1× assay buffer. The reaction was allowed to progress at ambient temperature for 90 minutes. The reaction was then stopped by the addition of 20 μl of TR-FRET Dilution Buffer (Life Technologies, Carlsbad, CA) containing 2 nM Tb-labeled anti-phospho LRRKtide antibody and 10 mM EDTA (Life Technologies, Carlsbad, CA). After an incubation of 1 hour at room temperature, the plate was read on an EnVision multimode plate reader (Perkin Elmer, Waltham, MA) with an excitation wavelength of 337 nm (Laser) and a reading emission at both 520 and 495 nm. Compound IC50s were interpolated from nonlinear regression best fits of the log of the final compound concentration, plotted as a function of the 520/495-nm emission ratio using Activity base. Abase uses a 4 parameter (4P) logistic fit based on the Levenberg-Marquardt algorithm.
(In general: In TR-FRET formats the signal depends on donor and acceptor labels being close together.)

Structures are written as SMILES.

T1 sequence (Q5S007 970-2527 G2019S limits assumed): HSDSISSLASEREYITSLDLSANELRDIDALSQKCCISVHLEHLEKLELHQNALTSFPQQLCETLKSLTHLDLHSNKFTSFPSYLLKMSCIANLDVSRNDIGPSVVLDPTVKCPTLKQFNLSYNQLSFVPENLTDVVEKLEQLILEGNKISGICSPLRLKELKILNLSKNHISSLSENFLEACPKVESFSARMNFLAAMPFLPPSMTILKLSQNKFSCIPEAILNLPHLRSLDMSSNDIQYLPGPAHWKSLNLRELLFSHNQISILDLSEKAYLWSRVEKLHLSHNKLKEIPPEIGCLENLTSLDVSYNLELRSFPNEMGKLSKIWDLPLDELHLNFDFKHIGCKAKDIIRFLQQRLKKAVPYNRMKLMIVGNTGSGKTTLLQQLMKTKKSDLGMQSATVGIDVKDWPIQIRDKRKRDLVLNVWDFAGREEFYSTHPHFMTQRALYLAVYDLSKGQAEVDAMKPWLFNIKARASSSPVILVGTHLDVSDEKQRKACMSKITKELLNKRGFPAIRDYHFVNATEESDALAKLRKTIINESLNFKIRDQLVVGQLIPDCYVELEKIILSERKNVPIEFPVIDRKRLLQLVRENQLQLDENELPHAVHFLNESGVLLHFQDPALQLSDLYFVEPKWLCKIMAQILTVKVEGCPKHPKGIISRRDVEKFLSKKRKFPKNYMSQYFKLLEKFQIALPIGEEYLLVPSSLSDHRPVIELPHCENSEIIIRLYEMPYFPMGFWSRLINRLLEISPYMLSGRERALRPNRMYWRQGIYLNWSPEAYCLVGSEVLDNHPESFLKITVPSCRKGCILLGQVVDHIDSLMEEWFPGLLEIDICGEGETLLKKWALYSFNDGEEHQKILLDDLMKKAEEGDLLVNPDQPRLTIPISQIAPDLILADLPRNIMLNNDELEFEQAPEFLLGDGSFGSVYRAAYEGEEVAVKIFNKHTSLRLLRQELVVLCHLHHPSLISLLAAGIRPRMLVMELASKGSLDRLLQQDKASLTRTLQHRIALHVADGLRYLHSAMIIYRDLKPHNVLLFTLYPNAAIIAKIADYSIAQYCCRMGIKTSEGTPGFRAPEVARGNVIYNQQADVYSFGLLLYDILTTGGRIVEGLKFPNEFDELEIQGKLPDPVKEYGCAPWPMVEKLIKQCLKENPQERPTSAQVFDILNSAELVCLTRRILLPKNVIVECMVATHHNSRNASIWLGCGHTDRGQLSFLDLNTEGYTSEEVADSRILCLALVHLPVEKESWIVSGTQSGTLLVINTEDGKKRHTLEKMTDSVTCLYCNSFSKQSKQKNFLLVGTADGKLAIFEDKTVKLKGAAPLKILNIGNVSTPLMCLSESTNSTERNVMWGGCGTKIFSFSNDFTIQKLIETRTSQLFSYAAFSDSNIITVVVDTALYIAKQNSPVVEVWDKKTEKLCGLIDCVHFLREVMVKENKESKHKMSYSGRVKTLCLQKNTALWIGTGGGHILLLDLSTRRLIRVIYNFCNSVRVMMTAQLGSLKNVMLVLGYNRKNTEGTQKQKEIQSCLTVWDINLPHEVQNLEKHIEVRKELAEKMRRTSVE

For `CCC1C(C(=O)Nc2cc3cc(N4CCN(C5(C)COCC5F)CC4)c(Cl)cc3cn2)C1c1ccn(C)n1` (single isomer, unassigned) [Ex-10.52, (1R,2R,3R, 1R,2S,3R, or 1S,2R,3S, or 1S,2S,3S)-N-[7-chloro-6-[4-((3R,4R or 3S,4S)-4-fluoro-3-methyl-tetrahydrofuran-3-yl)piperazin-1-yl]-3-isoquinolyl]-2-ethyl-3-(1-methylpyrazol-3-yl)cyclopropanecarboxamide], the IC50 is 0.603 nM.

Take `CC1C(C(=O)Nc2cc3cc(N4CCN(C5(C)CCOC5)CC4)c(Cl)cc3cn2)C1c1cnn(C)c1` (single isomer, unassigned) [Ex-9.8]: the IC50 was 4.9 nM.

Take `C[C@H]1CN(c2cc3cc(NC(=O)C4CC45CCOCC5)ncc3cc2Cl)CCN1C1COCC1O` (single isomer, unassigned) [Ex-2.4, (R or S)-N-{7-chloro-6-[(3S or 3R)-4-(3R,4R or 3S,4S)-4-hydroxyoxolan-3-yl)-3-methylpiperazin-1-yl]isoquinolin-3-yl}-6-oxaspiro[2.5]octane-1-carboxamide]: the IC50 was 0.38 nM.

With `CC1(N2CCN(c3cc4cc(NC(=O)C5CCC56CCOCC6)ncc4cc3Cl)CC2)COCC1O` (single isomer, unassigned) [Ex-1.27, (R or S)-N-(7-chloro-6-(4-((3R,4R or 3S,4S)-4-hydroxy-3-methyltetrahydrofuran-3-yl)piperazin-1-yl)isoquinolin-3-yl)-7-oxaspiro[3.5]nonane-1-carboxamide], the IC50 was 1.29 nM.

With `CC1(N2CCN(c3cc4cc(NC(=O)C5CCOCC5)ncc4cc3Cl)CC2)COCC1O` (stereo not shown) [Ex-9.2], the “LRRK2 pIC50” value was determined as 8.74.

Take `CCC1C(C(=O)Nc2cc3cc(N4CCN(C5(C)COCC5F)CC4)c(Cl)cc3cn2)C1c1ccn(C)n1` (single isomer, unassigned) [Ex-10.51, (1R,2R,3R, 1R,2S,3R, or 1S,2R,3S, or 1S,2S,3S)-N-[7-chloro-6-[4-((3R,4R or 3S,4S)-4-fluoro-3-methyl-tetrahydrofuran-3-yl)piperazin-1-yl]-3-isoquinolyl]-2-ethyl-3-(1-methylpyrazol-3-yl)cyclopropanecarboxamide]: the IC50 was 0.0813 nM.

Take `O=C(Nc1cc2cc(N3CCN(C4COCC4O)CC3)c(Cl)cc2cn1)C1CC12CCOCC2` (single isomer, unassigned) [Ex-2.6, (R or S)-N-(7-chloro-6-(4-((3R,4R or 3S,4S)-4-hydroxytetrahydrofuran-3-yl)piperazin-1-yl)isoquinolin-3-yl)-6-oxaspiro[2.5]octane-1-carboxamide]: the IC50 was 3.09 nM.

For the compound `Cc1cc2cnc(NC(=O)C3CC34CCOCC4)cc2cc1N1CCN(C2(C)COCC2O)C[C@@H]1C` (single isomer, unassigned) [Ex-15.1, (R or S)-N-(6-((2R or 2S)-4-(4-(3R,4R or 3S,4S)-hydroxy-3-methyltetrahydrofuran-3-yl)-2-methylpiperazin-1-yl)-7-methylisoquinolin-3-yl)-6-oxaspiro[2.5]octane-1-carboxamide], the IC50 was 4.68 nM.

`CC1(N2CCN(c3cc4cc(NC(=O)C5CC56CCCOC6)ncc4cc3Cl)CC2)COCC1O` (single isomer, unassigned) [Ex-1.17, (1R,3S, or 1R,3R, or 1S,3S, or 1S,3R)-N-(7-chloro-6-(4-((3R,4R or 3S,4S)-4-hydroxy-3-methyltetrahydrofuran-3-yl)piperazin-1-yl)isoquinolin-3-yl)-5-oxaspiro[2.5]octane-1-carboxamide]: the IC50 was 776 nM.

For the compound `CC1(N2CCN(c3cc4cc(NC(=O)C5CC56CCOCC6)ncc4cc3C3CC3)CC2)COCC1O` (stereo not shown) [Ex-6.11], the “LRRK2 pIC50” value was 9.57.

Take `Cc1cc2cnc(NC(=O)C3CCOC(C)(C)C3)cc2cc1N1CCN(C2(C)CCOC2)CC1` (single isomer, unassigned) [Ex-10.41, (4R or 4S)-2,2-dimethyl-N-[7-methyl-6-[4-((R or S)-3-methyltetrahydrofuran-3-yl)piperazin-1-yl]-3-isoquinolyl]tetrahydropyran-4-carboxamide]: the IC50 was 0.309 nM.

Regarding `CCOC1CC2(C1)CC2C(=O)Nc1cc2cc(N3CCN(C4(C)COCC4F)CC3)c(Cl)cc2cn1` (single isomer, unassigned) [Ex-10.24, (1R,2R or 1S,2S)-N-[7-chloro-6-[4-((3R,4R or 3S,4S)-4-fluoro-3-methyl-tetrahydrofuran-3-yl)piperazin-1-yl]-3-isoquinolyl]-5-ethoxy-spiro[2.3]hexane-2-carboxamide], the IC50 is 0.0813 nM.

As to `COC1COCC1N1CCN(c2cc3cc(NC(=O)C4CC45CCOCC5)ncc3cc2Cl)CC1` (single isomer, unassigned) [Ex-5.8], the IC50 is 191 nM.

In the case of `CC1(N2CCN(c3cc4cc(NC(=O)C5CC56CC6)ncc4cc3Cl)CC2)COCC1O` (single isomer, unassigned) [Ex-2.13, (R or S)-N-(7-chloro-6-(4-((3R,4R or 3S,4S)-4-hydroxy-3-methyltetrahydrofuran-3-yl)piperazin-1-yl)isoquinolin-3-yl)spiro[2.2]pentane-1-carboxamide], the IC50 was 33.9 nM.

Turning to `CC1(N2CCN(c3cc4cc(NC(=O)C5CC5c5ccco5)ncc4cc3Cl)CC2)COCC1O` (single isomer, unassigned) [Ex-10.30, (1R,2R or 1S,2S)-N-[7-chloro-6-[4-((3R,4R or 3S,4S)-4-hydroxy-3-methyl-tetrahydrofuran-3-yl)piperazin-1-yl]-3-isoquinolyl]-2-(2-furyl)cyclopropanecarboxamide], the IC50 was 0.0813 nM.

With `CC1C(C(=O)Nc2cc3cc(N4CCN(C5(C)COCC5O)CC4)c(Cl)cc3cn2)C1c1ccn(C)n1` (single isomer, unassigned) [Ex-10.53, (1R,2R,3R, 1R,2S,3R, or 1S,2R,3S, or 1S,2S,3S)-N-[7-chloro-6-[4-((3R,4R or 3S,4S)-4-hydroxy-3-methyl-tetrahydrofuran-3-yl)piperazin-1-yl]-3-isoquinolyl]-2-methyl-3-(1-methylpyrazol-3-yl)cyclopropanecarboxamide], the IC50 is 0.0813 nM.

As to `CC1(N2CCN(c3cc4cc(NC(=O)C5CCC(F)(F)CO5)ncc4cc3Cl)CC2)COCC1O` (single isomer, unassigned) [Ex-10.1, (2R or 2S)-N-(7-chloro-6-((3R, 4R or 3S, 4S)-4-(4-hydroxy-3-methyltetrahydrofuran-3-yl)piperazin-1-yl)isoquinolin-3-yl)-5,5-difluorotetrahydro-2H-pyran-2-carboxamide], the IC50 is 0.933 nM.

Consider `Cn1ncc(C2CC2C(=O)Nc2cc3cc(N4CCN(C5(C)COCC5O)CC4)c(Cl)cc3cn2)n1` (single isomer, unassigned) [Ex-16.2, (1S,2R or 1S,2S)-N-(N-(7-chloro-6-(4-(4-hydroxy-3-methyltetrahydrofuran-3-yl)piperazin-1-yl)isoquinolin-3-yl)-2-(2-methyl-2H-1,2,3-triazol-4-yl)cyclopropane-1-carboxamide], for which the IC50 was 0.0813 nM.

Turning to `CC1(N2CCN(c3cc4cc(NC(=O)C5CC56CCOCC6)ncc4cc3Cl)CC2)CCOC1` (single isomer, unassigned) [Ex-5.14], the IC50 was 302 nM.

For `CC1(N2CCN(c3cc4cc(NC(=O)C5CC56CCOCC6)ncc4cc3Cl)CC2)CCOC1` (single isomer, unassigned) [Ex-5.11], the IC50 was 2.45 nM.

Turning to `COC1CC(C(=O)Nc2cc3cc(N4CCN(C5(C)COCC5O)CC4)c(Cl)cc3cn2)C1` (single isomer, unassigned) [Ex-7.2], the IC50 is 0.977 nM.

Consider `Cc1cc2cnc(NC(=O)C3CCOC(C)(C)C3)cc2cc1N1CCN(C2(C)CCOC2)CC1` (single isomer, unassigned) [Ex-10.44, (4R or 4S)-2,2-dimethyl-N-[7-methyl-6-[4-((R or S)-3-methyltetrahydrofuran-3-yl)piperazin-1-yl]-3-isoquinolyl]tetrahydropyran-4-carboxamide], for which the IC50 is 209 nM.
